Active and inactive are the calls of the source.
Columns and labels:
[1] = molecular target: T1, Cytochrome P450 2D6 (Homo sapiens, UniProt P10635);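 also: CYP2D6 member of a cytochrome P450 panel assay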
[2] = molecular target: T2, Cytochrome P450 2C9 (Homo sapiens, UniProt P11712)
[3] = molecular target: CAAX prenyl protease 1 (Saccharomyces cerevisiae S288c, UniProt P47154); experiment: yeast CAAX protease Ste24 inhibition – biochemical, S. cerevisiae, plate reader, cherry-pick, dose response (AID 488815)
[4] = molecular target: T2, Cytochrome P450 2C9; remark: listed apart in the source
[5] = DRD fibroblast viability loss – cell-based, non-viral oncogenic, luminescence, dose response (AID 1934); format: functional; conditions: Homo sapiens
[6] = molecular target: Phospholipase A2 (Homo sapiens, UniProt P04054); experiment: phospholipase A2 activity inhibition – biochemical, set 2, counter-screen for ATG4B inhibitor project, dose response (AID 588586); format: functional
[7] = system: BJ; experiment: BJ-TERT-LT-ST fibroblast viability loss – cell-based, RAS-independent, luminescence, dose response (AID 1935); format: functional; conditions: Homo sapiens;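 also: BJ fibroblasts immortalized with TERT plus LT and ST oncogenes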
[8] = system: BJ; experiment: BJ-TERT fibroblast viability loss – cell-based, RAS-independent, luminescence, dose response (AID 1933); format: functional; conditions: Homo sapiens
[9] = molecular target: T3, Cysteine protease ATG4B (Homo sapiens, UniProt Q9Y4P1); experiment: autophagin-1 cysteine protease inhibition – biochemical, fluorescence, set 2, dose response (AID 588584); format: functional
T3 sequence (Q9Y4P1 whole entry): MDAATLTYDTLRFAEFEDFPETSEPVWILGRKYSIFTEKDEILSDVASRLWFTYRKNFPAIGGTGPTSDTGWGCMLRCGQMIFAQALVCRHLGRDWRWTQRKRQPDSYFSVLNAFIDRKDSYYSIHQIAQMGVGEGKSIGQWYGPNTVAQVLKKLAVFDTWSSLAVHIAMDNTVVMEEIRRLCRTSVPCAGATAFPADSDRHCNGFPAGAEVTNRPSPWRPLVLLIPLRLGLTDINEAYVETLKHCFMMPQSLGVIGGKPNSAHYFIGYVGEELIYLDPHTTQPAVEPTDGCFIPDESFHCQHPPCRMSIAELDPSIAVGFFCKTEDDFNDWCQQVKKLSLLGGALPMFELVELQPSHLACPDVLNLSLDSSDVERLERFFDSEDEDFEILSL

[10] = system: BJ; experiment: cells; format: functional, cell-based; conditions: Homo sapiens
[11] = molecular target: T4, Microphthalmia-associated transcription factor (Homo sapiens, UniProt O75030); experiment: reducers of TRPM1 reporter luminescence, concentration series – cell-based, SK-MEL-5, cherry-picked, set 3, MITF inhibitor project, dose response (AID 493073); format: functional;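 also: SK-MEL-5 melanoma cells with luciferase driven by the MITF target TRPM1 promoter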
T4 sequence (O75030 whole entry): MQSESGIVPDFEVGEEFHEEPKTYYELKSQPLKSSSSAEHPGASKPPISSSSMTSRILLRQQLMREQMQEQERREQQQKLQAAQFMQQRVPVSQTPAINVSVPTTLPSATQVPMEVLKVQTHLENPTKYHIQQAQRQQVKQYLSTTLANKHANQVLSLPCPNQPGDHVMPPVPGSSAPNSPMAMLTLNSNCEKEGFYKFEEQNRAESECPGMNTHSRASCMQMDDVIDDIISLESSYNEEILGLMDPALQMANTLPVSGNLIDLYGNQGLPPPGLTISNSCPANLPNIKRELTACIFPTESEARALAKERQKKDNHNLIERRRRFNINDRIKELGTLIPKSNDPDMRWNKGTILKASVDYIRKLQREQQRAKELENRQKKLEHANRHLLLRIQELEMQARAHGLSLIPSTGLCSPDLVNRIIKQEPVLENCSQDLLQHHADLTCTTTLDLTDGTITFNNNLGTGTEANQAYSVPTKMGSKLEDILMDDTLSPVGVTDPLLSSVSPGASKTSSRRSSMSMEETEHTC

[12] = system: Streptococcus; experiment: GAS UMAA2166 growth inhibition – luminescence, BacTiterGlo, counter-screen for streptokinase expression inhibitor project, dose response (AID 1915); format: functional, organism-based;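 also: potency for reduction of bacterial viability or growth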
[13] = system: INS1; experiment: INS-1E survival protection against cytokine death – cell-based, luminescence, retest, dose response (AID 449756); format: functional; conditions: Rattus norvegicus;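 also: cell death triggered by IL-1 beta plus TNF-alpha plus IFN-gamma mixture; protective hits raise ATP signal compared with cytokine alone wells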
[14] = molecular target: T1, Cytochrome P450 2D6; remark: listed apart in the source
[15] = fluconazole-exposed Candida albicans growth modulators – fluorescence, retest, confirmation (AID 2467); format: functional, cell-based
[16] = Luminescence Cell-Based Dose Retest to Confirm Inhibitors of Cancer Stem Cells. [Related pubchem assays (depositor defined):AID2717, AID2721]; format: functional; conditions: Homo sapiens
[17] = molecular target: ATP-dependent molecular chaperone HSP82 (Candida albicans (strain WO-1) (Yeast), UniProt C4YTQ8); experiment: steroid-induced GRE reporter decrease in yeast – S. cerevisiae, luminescence, Hsp90 inhibitor project, dose response (AID 2400); format: functional, cell-based;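 also: beta-galactosidase luminescence from glucocorticoid response element reporter as proxy for Hsp90 function; inhibitor potency where signal loss means Hsp90 inhibition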
[18] = cells; format: functional, cell-based
[19] = system: Streptococcus sp. 'group A'; experiment: Streptococcus pyogenes SK(-)GAS viability under kanamycin – luminescence, BacTiterGlo, confirmation, counter-screen for streptokinase expression inhibitor project, dose response (AID 1900); format: functional, organism-based
[20] = molecular target: T5, Serine/threonine-protein phosphatase (Candida dubliniensis (strain CD36 / CBS 7987 / NCPF 3949 / NRRLY-17841) (Yeast), UniProt B9W6M3); experiment: blockers of CaCl2-induced CDRE-lacZ signaling – S. cerevisiae, luminescence, secondary, dose response (AID 2388); format: functional, cell-based;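 also: yeast reporter cells carrying a calcineurin-responsive lacZ construct stimulated with calcium chloride; luminescent beta-galactosidase reporter signal in whole cells rather than isolated phosphatase activity; potency for inhibition where a drop in reporter signal means calcineurin blockade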
T5 sequence (B9W6M3 whole entry): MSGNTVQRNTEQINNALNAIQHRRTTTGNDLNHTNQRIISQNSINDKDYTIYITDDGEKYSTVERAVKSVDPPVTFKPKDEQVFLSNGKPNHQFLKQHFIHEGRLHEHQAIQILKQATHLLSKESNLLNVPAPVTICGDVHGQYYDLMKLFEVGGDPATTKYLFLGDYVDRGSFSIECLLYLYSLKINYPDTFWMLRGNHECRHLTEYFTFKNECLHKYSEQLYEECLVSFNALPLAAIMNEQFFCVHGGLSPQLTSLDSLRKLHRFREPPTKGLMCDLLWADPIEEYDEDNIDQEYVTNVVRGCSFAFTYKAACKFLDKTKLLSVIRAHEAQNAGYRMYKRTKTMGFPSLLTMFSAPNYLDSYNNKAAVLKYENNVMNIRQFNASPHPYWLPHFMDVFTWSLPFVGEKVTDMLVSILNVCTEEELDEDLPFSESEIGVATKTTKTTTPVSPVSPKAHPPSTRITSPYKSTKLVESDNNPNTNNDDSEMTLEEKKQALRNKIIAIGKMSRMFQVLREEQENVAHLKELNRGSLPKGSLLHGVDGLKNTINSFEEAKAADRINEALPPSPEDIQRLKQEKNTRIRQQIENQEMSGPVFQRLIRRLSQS

[21] = cells; format: functional, cell-based; remark: listed apart in the source
[22] = NIH-3T3 fibroblast cytotoxicity, dose response, cytotoxicity control, cell-based, fluorescence, Alamar Blue, secondary assay (AID 2327); format: functional;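 also: NIH-3T3 mouse fibroblasts cultured with fluconazole at 8 µg/mL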

T2 sequence (P11712 whole entry): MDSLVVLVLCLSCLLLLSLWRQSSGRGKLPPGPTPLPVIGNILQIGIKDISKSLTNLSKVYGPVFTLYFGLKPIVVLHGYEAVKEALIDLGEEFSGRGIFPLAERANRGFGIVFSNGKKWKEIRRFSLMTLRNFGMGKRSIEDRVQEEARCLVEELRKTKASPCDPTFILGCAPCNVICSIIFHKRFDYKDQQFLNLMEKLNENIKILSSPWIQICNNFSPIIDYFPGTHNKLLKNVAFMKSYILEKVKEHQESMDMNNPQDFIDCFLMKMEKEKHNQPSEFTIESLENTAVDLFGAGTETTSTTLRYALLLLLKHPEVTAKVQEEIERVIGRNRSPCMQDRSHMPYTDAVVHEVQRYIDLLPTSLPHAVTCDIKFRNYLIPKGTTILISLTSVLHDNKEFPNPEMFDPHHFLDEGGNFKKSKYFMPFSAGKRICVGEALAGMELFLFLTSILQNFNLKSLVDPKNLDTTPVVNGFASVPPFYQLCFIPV
T1 sequence (P10635 whole entry): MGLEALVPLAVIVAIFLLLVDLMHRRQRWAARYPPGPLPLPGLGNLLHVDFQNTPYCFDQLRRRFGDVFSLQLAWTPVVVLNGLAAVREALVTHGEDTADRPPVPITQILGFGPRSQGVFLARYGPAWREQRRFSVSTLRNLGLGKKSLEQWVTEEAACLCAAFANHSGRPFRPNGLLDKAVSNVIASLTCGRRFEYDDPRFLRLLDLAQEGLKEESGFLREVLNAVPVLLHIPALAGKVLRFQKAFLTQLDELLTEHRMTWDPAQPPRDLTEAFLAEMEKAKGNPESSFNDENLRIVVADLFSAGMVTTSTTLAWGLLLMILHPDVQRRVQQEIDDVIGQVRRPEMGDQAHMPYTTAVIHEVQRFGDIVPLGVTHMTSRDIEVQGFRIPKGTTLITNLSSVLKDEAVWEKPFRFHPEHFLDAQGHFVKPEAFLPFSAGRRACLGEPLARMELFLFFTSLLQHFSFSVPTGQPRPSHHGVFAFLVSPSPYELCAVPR
Sequence of Phospholipase A2 (P04054 whole entry): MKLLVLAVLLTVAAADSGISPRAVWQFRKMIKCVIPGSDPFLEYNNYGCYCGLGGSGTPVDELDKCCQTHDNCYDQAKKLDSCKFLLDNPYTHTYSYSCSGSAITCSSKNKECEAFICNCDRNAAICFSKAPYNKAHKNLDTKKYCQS
Sequence of ATP-dependent molecular chaperone HSP82 (C4YTQ8 whole entry): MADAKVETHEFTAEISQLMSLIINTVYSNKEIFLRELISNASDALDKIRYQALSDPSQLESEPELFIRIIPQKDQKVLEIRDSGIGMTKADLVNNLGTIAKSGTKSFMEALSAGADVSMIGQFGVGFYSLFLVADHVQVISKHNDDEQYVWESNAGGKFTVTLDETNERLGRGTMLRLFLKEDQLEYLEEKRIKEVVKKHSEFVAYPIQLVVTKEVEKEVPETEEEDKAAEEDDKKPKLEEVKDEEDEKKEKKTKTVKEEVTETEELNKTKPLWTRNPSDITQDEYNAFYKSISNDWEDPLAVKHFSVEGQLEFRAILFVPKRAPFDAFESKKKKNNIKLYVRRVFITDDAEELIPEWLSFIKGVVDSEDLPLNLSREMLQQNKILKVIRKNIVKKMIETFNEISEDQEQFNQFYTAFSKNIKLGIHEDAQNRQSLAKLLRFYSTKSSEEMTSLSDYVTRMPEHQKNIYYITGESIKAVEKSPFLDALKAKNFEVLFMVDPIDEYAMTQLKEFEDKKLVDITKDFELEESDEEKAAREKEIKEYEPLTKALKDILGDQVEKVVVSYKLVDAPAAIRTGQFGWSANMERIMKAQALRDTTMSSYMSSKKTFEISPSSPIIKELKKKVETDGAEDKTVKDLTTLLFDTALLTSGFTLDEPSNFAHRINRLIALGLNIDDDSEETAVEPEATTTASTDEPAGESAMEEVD
Sequence of CAAX prenyl protease 1 (P47154 whole entry): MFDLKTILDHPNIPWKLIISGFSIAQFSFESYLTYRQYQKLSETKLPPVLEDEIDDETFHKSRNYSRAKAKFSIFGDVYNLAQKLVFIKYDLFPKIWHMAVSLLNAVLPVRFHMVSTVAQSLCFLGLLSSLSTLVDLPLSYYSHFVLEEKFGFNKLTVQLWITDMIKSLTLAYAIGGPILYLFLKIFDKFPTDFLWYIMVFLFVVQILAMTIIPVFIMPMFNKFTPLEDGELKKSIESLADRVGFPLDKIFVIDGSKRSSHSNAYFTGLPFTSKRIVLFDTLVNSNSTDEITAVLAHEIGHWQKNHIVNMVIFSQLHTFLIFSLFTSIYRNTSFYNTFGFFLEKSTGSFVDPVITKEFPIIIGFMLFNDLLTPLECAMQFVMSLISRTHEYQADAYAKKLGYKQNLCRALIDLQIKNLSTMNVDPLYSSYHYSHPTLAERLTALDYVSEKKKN

For CC(C)c1ccc(C(O)(C(=O)O)c2ccc(C(C)C)cc2)cc1, the AC50 [1] was “inconclusive” and the AC50 [2] was 3.98 µM (inconclusive).
In the case of Cc1cc(C)cc(N2CC(=O)C(c3nc(O)c4ccccc4n3)=C2N)c1, the AC50 [3] is reported as 14.7 µM (active).
For COc1ccccc1C(=O)Nc1cc2c(ccc3ccccc32)oc1=O, the AC50 [4] was “inconclusive”.
In the case of CC1=Nc2cc(C(=O)NCc3ccco3)ccc2Sc2ccc(C)cc21, the EC50 [5] is reported as 2.73 µM (inconclusive), the IC50 [6] is reported as 74.1 µM (inactive) and the EC50 [7] is reported as 1.95 µM (active). For the same molecule, the EC50 [8] was 2.33 µM (inconclusive), the IC50 [9] was 77.5 µM (inactive) and the EC50 [10] was 2.76 µM (active).
In the case of Cc1c(Cl)c([N+](=O)[O-])nn1Cc1ccc(C(=O)N/N=C\c2cc(Cl)ccc2O)o1, the AC50 [11] is reported as 3.47 µM (active), the EC50 [12] is reported as 2.38 µM (active) and the IC50 [6] is reported as 5.5 µM (active). For the same molecule, the AC50 [13] was 1.67 µM (active), the AC50 [14] was 11.2 µM (inconclusive) and the EC50 [15] was 0.754 µM (active). The AC50 [16] was 3.28 µM (active), the EC50 [17] was 29.5 µM (active) and the IC50 [9] was 21 µM (inactive). The EC50 [18] was 89 µM (active), the EC50 [19] was 2.03 µM (active) and the EC50 [20] was > 180 µM (inactive). The EC50 [21] was 9.68 µM (active) and the EC50 [22] was > 160 µM (inactive).

Source: ChEMBL document CHEMBL1201862, “PubChem BioAssay data set” (2004)
